Results as given in patent US7307063B2, “Melanocortin metallopeptides for treatment of sexual dysfunction” (Palatin Technologies, Inc., priority 2001, dated 2007).
“And” between values parts separate entries of the source, which are not always exact repeats. Equal entries are not always repeated. Non-standard residues stand in square brackets, D forms with d. No end group written: not given here. *: point of attachment. Tiq = 1,2,3,4-tetrahydroisoquinoline-1-carboxylic acid; Phenylacetyl(4-Ph) = O=C(Cc1ccc(-c2ccccc2)cc1)*; Acetyl(2-naphthyl) = O=C(Cc1ccc2ccccc2c1)*; dDip = N[C@@H](C(=O)O)C(c1ccccc1)c1ccccc1; 1Nal = N[C@@H](Cc1cccc2ccccc12)C(=O)O; 2Nal = N[C@@H](Cc1ccc2ccccc2c1)C(=O)O; Desaminotyrosyl = O=C(CCc1ccc(O)cc1)*; dIgl = N[C@@H](C(=O)O)C1Cc2ccccc2C1; d(pGlu) = O=C1CC[C@H](C(=O)O)N1; aThr = C[C@H](O)[C@H](N)C(=O)O; code Z = not defined here; 4‑Amc = not defined here; Nle = CCCC[C@H](N)C(=O)O

Tests used:
hMC5-R = biological target: T1, hMC5-R (Homo sapiens, UniProt P33032); experiment: Competitive binding assay: inhibition of 125I-NDP-α-MSH binding to HEK-293 membranes with cloned human receptor subtype 5; details: Table 6; 1 μM; mean of triplicate
T1 construct: expressed in transfected cells; host or cells: HEK-293
Procedure: (§1) Rhenium-complexed metallopeptides of the formulas given in Table 1 were prepared, with the metallopeptides complexed with rhenium using the rhenium transfer agent ReOCl3(PPh3)2 in the presence of 1,8-Diazabicyclo[5,4,0] undec-7-ene as a base, as disclosed in International Application PCT/US00/16396, filed Jun. 14, 2000, Melanocortin Metallopeptide Constructs, Combinatorial Libraries and Applications, incorporated by reference herein. Affinities of compounds were measured using membranes from HEK-293 cells containing cloned human melanocortin receptor subtypes 3, 4 and 5. MC1-R membranes were isolated from B16—F10 mouse melanoma cells. The assay tube also contained a chosen concentration of the test peptide of this invention, complexed to a rhenium metal ion as indicated, for determining its efficacy in inhibiting the binding of ^125I-NDP-α-MSH to its receptor. Non-specific binding was measured by complete inhibition of binding of ^125I-NDP-α-MSH in the assay with the presence of 1 μM α-MSH. 100% specific binding was defined as the difference in radioactivity (cpm) bound to cell membranes in the absence and presence of 1 μM α-MSH. The cpm obtained in presence of test compounds were normalized with respect to 100% specific binding to determine the percent inhibition of ^125I-NDP-α-MSH binding.
(§2) Peptide sequences set forth in Table 6 were prepared using conventional synthetic means. The resulting sequences were rhenium-complexed to form metallopeptides, with the metallopeptides complexed with rhenium using the rhenium transfer agent ReOCl3(PPh3)2 in the presence of 1,8-Diazabicyclo[5,4,0] undec-7-ene as a base. Percent inhibition was determined as in Example 1 using the Re-complexed metallopeptides, using the same methods as described therein. All measures are means of triplicate determinations.

hMC2-R = biological target: T2, hMC2-R (Homo sapiens, UniProt P41968); experiment: Competitive binding assay of additional compounds, Table 6 hMC2-R; details: 1 μM, mean of triplicate
T2 construct: expressed in transfected cells; host or cells: HEK-293
Procedure: [The source words this procedure for another target and reports this target under the same test.] as §1, §2

MC4-R = biological target: T3, MC4-R (Homo sapiens, UniProt P32245); experiment: Competitive binding assay: inhibition of 125I-NDP-α-MSH binding to HEK-293 membranes with cloned human receptor subtype 4; details: Table 6; 1 μM; mean of triplicate
T3 construct: expressed in transfected cells; host or cells: HEK-293
Method in brief: (§3)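 Percent inhibition of 125I-NDP-α-MSH binding, from cpm normalized to 100% specific binding (total minus binding with 1 μM α-MSH). Test compounds were Re-complexed metallopeptides at a chosen concentration; triplicate means for the added peptides.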

MC1-R = biological target: T4, MC1-R (Mus musculus, UniProt Q01727); experiment: Competitive binding assay: inhibition of 125I-NDP-α-MSH binding to membranes from B16-F10 mouse melanoma cells; details: Table 6; 1 μM; mean of triplicate
T4 construct: MC1-R membranes were isolated from B16—F10 mouse melanoma cells; endogenous in cells; host or cells: B16-F10 mouse melanoma cells
Method in brief: as §3

T2 sequence (P41968 whole entry): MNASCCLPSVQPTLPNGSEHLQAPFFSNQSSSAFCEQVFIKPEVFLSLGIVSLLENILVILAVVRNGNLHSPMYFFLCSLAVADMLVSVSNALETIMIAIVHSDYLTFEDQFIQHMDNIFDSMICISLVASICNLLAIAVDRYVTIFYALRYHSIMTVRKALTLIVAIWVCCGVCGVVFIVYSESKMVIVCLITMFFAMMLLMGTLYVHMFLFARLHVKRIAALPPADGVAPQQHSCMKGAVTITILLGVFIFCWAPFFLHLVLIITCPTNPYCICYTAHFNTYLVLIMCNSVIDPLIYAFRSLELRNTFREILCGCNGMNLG
T4 sequence (Q01727 whole entry): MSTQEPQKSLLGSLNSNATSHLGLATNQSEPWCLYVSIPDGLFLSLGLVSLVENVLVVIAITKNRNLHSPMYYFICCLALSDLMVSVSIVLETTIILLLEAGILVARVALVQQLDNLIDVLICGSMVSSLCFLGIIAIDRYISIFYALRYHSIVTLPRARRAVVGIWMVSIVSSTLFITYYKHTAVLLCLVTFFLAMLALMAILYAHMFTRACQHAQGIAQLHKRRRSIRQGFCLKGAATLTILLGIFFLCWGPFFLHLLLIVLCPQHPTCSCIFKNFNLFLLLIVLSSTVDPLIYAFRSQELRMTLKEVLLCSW
T1 sequence (P33032 whole entry): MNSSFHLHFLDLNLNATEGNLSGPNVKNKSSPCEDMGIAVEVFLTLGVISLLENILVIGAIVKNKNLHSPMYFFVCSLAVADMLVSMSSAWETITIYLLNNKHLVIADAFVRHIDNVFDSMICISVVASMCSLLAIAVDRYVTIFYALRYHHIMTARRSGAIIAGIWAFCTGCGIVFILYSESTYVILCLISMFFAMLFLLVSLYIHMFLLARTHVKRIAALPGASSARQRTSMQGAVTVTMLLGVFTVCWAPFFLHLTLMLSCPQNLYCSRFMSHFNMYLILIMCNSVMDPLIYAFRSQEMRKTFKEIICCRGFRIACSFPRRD
T3 sequence (P32245 whole entry): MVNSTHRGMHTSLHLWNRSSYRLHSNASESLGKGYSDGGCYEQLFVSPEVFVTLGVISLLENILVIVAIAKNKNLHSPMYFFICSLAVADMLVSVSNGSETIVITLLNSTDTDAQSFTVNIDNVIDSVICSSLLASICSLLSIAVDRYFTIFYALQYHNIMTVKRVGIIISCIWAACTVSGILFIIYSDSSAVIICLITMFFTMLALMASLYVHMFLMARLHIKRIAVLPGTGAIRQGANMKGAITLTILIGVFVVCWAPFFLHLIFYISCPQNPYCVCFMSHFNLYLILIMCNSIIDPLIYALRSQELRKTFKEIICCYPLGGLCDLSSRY

| % Inhibition of Binding hMC5-R (hMC5-R) [%] | % Inhibition of Binding hMC2-R (hMC2-R) [%] | % Inhibition of Binding hMC4-R (MC4-R) | % Inhibition of Binding MC1-R (MC1-R) | Substance |
| --- | --- | --- | --- | --- |
| 0 | 11 | 15% | 47% | 3′-Bromo phenyl acetyl-Arg-His-D-Phe(4′-Cl)-Cys-NH2 |
| 86 | 35 | 80% | 8% | 3′-Bromo phenyl acetyl-Arg-Ala-D-Phe(4′-Cl)-Cys-Trp-NH2 |
| 50 | 0 | 0% | 1% | 4′-Biphenylacetyl-D-Phe-Arg-Cys-Trp-NH2 ({Phenylacetyl(4-Ph)}-[dF]RCW-NH2; not fully specified; printed as 4′-Biphenylacetyl-D-Phe-Arg-Cys-Trp-NH2) |
| 87 | 4 | 18% | 81% | Ac-[Nle]AL[dF]RCW-NH2 |
| 79 | 37 | 62% | 24% | Hept-Ser(Bzl)-D-Phe(4′-Cl)-Arg-D-Trp-Cys-NH2 |
| 62 | 0 | 9% | 45% | Ac-[Nle]AW[dF]RCW-NH2 |
| 0 | 0 | 1% | 15% | Ac-Nle-Ala-D-Tyr-D-Phe-Arg-Cys-Trp-NH2 (Ac-[Nle]A[dY][dF]RCW-NH2; not fully specified; printed as Ac-Nle-Ala-D-Tyr-D-Phe-Arg-Cys-Trp-NH2) |
| 83 | 40 | 89% | 99% | Ac-Nle-Ala-His-D-Phe-Arg-Nal 2′-Cys-NH2 |
| 14 | 0 | 0% | 7% | 3′-(4′-Hydroxyphenyl)propionyl-D-Phe-Arg-Cys-Trp-NH2 (Desaminotyrosyl-[dF]RCW-NH2; not fully specified; printed as 3′-(4′-Hydroxyphenyl)propionyl-D-Phe-Arg-Cys-Trp-NH2) |
| 52 | 7 | 0% | 50% | D-Nal 2′-D-Phe-Arg-Cys-Trp-NH2 |
| 67 | 0 | 13% | 53% | [dP][dF]RCW-NH2 |
| 34 | 0 | 6% | 3% | 7-amino-haptanoyl-Ser(Bzl)-D-Nal 2′-Arg-Cys-NH2 |
| 2 | 0 | 22% | 28% | Allo-Thr-D-Phe-Arg-Trp-Cys-NH2 |
| 39 | 12 | 15% | 49% | [dIgl][dF]RCW-NH2 |
| 28 | 16 | 46% | 44% | Z-D-Pyr-D-Phe-Arg-Trp-Cys-NH2 ({code Z}-[d(pGlu)][dF]RWC-NH2; reading uncertain; also: metal complex, printed as Z-D-Pyr-D-Phe-Arg-Trp-Cys-NH2) |
| 31 | 5 | 0% | 66% | allo-Thr-D-Phe-Arg-Cys-Trp-NH2 ([aThr][dF]RCW-NH2; also: metal complex) |
| 71 | 0 | 16% | 58% | Ac-[Nle]AF[dF]RCW-NH2 |
| 55 | 7 | 8% | 7% | Tiq-D-Phe-Arg-Trp-Cys-NH2 (Tiq-[dF]RWC-NH2; also: metal complex) |

| % Inhibition of Binding hMC5-R (hMC5-R) [%] | % Inhibition of Binding hMC2-R (hMC2-R) [%] | % Inhibition of Binding hMC4-R (MC4-R) | % Inhibition of Binding MC1-R (MC1-R) | Substance |
| --- | --- | --- | --- | --- |
| 43 | 0 | 13% | 3% | D-Nal 1′-D-Phe-Arg-Trp-Cys-NH2 |
| 19 | 0 | 4% | 0% | Idc-D-Phe-Arg-Cys-Trp-NH2 |
| 5 | 3 | 47% | 93% | Ac-Nle-Ala-His-D-Phe-Arg-D-Nal 1′-Cys-NH2 |
| 83 | 49 | 62% | 61% | 3′-Br Phenyl acetyl-Arg-Arg-D-Phe(3′-Cl)-Cys-Nal 1′-NH2 |
| 16 | 14 | 2% | 33% | 3′-Br-Phenylacetyl-His-Gly-D-Phe(4′-Cl)Trp-Cys-NH2 |
| 7 | 8 | 11% | 30% | Ac-[Nle]AT[dF]RCW-NH2 |
| 8 | 0 | 34% | 23% | [dDip][dF]RWC-NH2 |
| 94 | 86 | 98% and 82% | 93% and 85% | 3′-Br Phenyl acetyl-Arg-Arg-D-Phe(4′-Me)-Cys-Trp-NH2 |
| 37 | 0 | 0% | 15% | Tic-D-Phe(4′-Cl)-His-Cys-NH2 |
| 62 | 0 | 20% | 8% | Nal 2′-D-Phe-Arg-Trp-Cys-NH2 ([2Nal][dF]RWC-NH2; also: metal complex) |
| 6 | 0 | 6% | 51% | 4-Amc-D-Phe-Arg-Trp-Cys-NH2 ({4‑Amc}-[dF]RWC-NH2; not fully specified; printed as 4-Amc-D-Phe-Arg-Trp-Cys-NH2; reading uncertain) |
| 59 | 26 | 69% | 15% | Tic-D-Phe(2′-Cl)-Arg-Trp-Cys-NH2 |
| 56 | 0 | 0% | 7% | Naphthlyl-2-acetyl-D-Phe-Arg-Cys-Trp-NH2 ({Acetyl(2-naphthyl)}-[dF]RCW-NH2; also: metal complex) |
| 80 | 19 | 73% | 0% | 3′-Bromo phenyl acetyl-Lys-Ala-D-Phe(4′-Me)-Cys-Trp-NH2 |
| 35 | 0 | 18% | 1% | [dP][dF]RWC-NH2 |
| 45 | 6 | 12% | 0% | Nal 1′-D-Phe-Arg-Cys-Trp-NH2 ([1Nal][dF]RCW-NH2; also: metal complex) |
| 59 | 26 | 39% | 92% | Ac-Nle-Ala-Arg-D-Phe-Arg-Cys-Trp-NH2 (Ac-[Nle]AR[dF]RCW-NH2; not fully specified; printed as Ac-Nle-Ala-Arg-D-Phe-Arg-Cys-Trp-NH2) |
| 89 | 68 | 75% | 65% | 3′-Br Phenyl acetyl-Arg-Arg-D-Phe(3′-Cl)-Cys-Nal 2′-NH2 |
